Laboratory results from paper PMC10035947, “Development of novel anilinoquinazoline-based carboxylic acids as non-classical carbonic anhydrase IX and XII inhibitors” (Journal of Enzyme Inhibition and Medicinal Chemistry, 2023).

Tests used:
RPMI-8226 = test: NCI SRB assay; assay type: cell-based, human; conditions: for GI%: RPMI-8226, 10 μM; for Growth Percent: RPMI-8226, 1.00E-5 Molar
MDA-MB-435 = test: NCI SRB assay; assay type: cell-based; conditions: for GI%: MDA-MB-435, 10 μM; for Growth Percent: MDA-MB-435, 1.00E-5 Molar
OVCAR-4 = test: NCI SRB assay; assay type: cell-based, human; conditions: for GI%: OVCAR-4, 10 μM; for Growth Percent: OVCAR-4, 1.00E-5 Molar
BT-549 = test: NCI SRB assay; assay type: cell-based, human; conditions: for GI%: BT-549, 10 μM; for Growth Percent: BT-549, 1.00E-5 Molar
MCF7 = test: NCI SRB assay; assay type: cell-based, human; conditions: for GI%: MCF7, 10 μM; for Growth Percent: MCF7, 1.00E-5 Molar
IGROV1 = test: NCI SRB assay; assay type: cell-based, human; conditions: for GI%: IGROV1, 10 μM; for Growth Percent: IGROV1, 1.00E-5 Molar
SF-268 = test: NCI SRB assay; assay type: cell-based, human; conditions: for GI%: SF-268, 10 μM; for Growth Percent: SF-268, 1.00E-5 Molar
NCI-H23 = test: NCI SRB assay; assay type: cell-based, human; conditions: for Growth Percent: NCI-H23, 1.00E-5 Molar
NCI-H522 = test: NCI SRB assay; assay type: cell-based, human; conditions: for GI%: NCI-H522, 10 μM; for Growth Percent: NCI-H522, 1.00E-5 Molar
HCT-15 = test: NCI SRB assay; assay type: cell-based, human; conditions: for GI%: HCT-15, 10 μM; for Growth Percent: HCT-15, 1.00E-5 Molar
HOP-62 = test: NCI SRB assay; assay type: cell-based, human; conditions: for GI%: HOP-62, 10 μM; for Growth Percent: HOP-62, 1.00E-5 Molar
HT29 = test: NCI SRB assay; assay type: cell-based, human; conditions: for GI%: HT29, 10 μM; for Growth Percent: HT29, 1.00E-5 Molar
U251 = test: NCI SRB assay; assay type: cell-based, human; conditions: for GI%: U251, 10 μM; for Growth Percent: U251, 1.00E-5 Molar
SK-MEL-28 = test: NCI SRB assay; assay type: cell-based, human; conditions: for GI%: SK-MEL-28, 10 μM; for Growth Percent: SK-MEL-28, 1.00E-5 Molar
MALME-3M = test: NCI SRB assay; assay type: cell-based, human; conditions: for GI%: 10 μM; for Growth Percent: 1.00E-5 Molar
A549/ATCC = test: NCI SRB assay; assay type: cell-based, human; conditions: A549/ATCC; for GI%: 10 μM; for Growth Percent: 1.00E-5 Molar
HCC-2998 = test: NCI SRB assay; assay type: cell-based, human; conditions: for GI%: HCC-2998, 10 μM; for Growth Percent: HCC-2998, 1.00E-5 Molar
M14 = test: NCI SRB assay; assay type: cell-based, human; conditions: for GI%: M14, 10 μM; for Growth Percent: M14, 1.00E-5 Molar
T-47D = test: NCI SRB assay; assay type: cell-based, human; conditions: for GI%: 10 μM; for Growth Percent: 1.00E-5 Molar
SK-MEL-5 = test: NCI SRB assay; assay type: cell-based, human; conditions: for GI%: SK-MEL-5, 10 μM; for Growth Percent: SK-MEL-5, 1.00E-5 Molar
786-0 = test: NCI SRB assay; assay type: cell-based, human; conditions: for GI%: 786-0, 10 μM; for Growth Percent: 786-0, 1.00E-5 Molar
OVCAR-8 = test: NCI SRB assay; assay type: cell-based, human; conditions: for GI%: OVCAR-8, 10 μM; for Growth Percent: OVCAR-8, 1.00E-5 Molar
K-562 = test: NCI SRB assay; assay type: cell-based, human; conditions: for GI%: K-562, 10 μM; for Growth Percent: K-562, 1.00E-5 Molar
hCA IX = molecular target: T1, hCA IX (Homo sapiens, UniProt Q16790); test: stopped flow CO2 hydrase assay; assay type: biochemical; conditions: for Selectivity ratio II/IX: KI hCA II / KI hCA IX; for Ki: mean from 3 assays
T1 construct: made in house
Summary of the method: (§1)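 Recombinant enzymes assayed by stopped-flow CO2 hydration using 0.2 mM phenol red at 557 nm in 20 mM Hepes pH 7.5 with 20 mM Na2SO4, CO2 1.7–17 mM. Inhibitor and enzyme preincubated 15 min at room temperature.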

hCA XII = molecular target: T2, hCA XII (Homo sapiens, UniProt O43570); test: stopped flow CO2 hydrase assay; assay type: biochemical; conditions: for Selectivity ratio I/XII: KI hCA I / KI hCA XII; for Selectivity ratio II/XII: KI hCA II / KI hCA XII; for Ki: mean from 3 assays
T2 construct: made in house
Summary of the method: as §1

hCA I = molecular target: T3, hCA I (Homo sapiens, UniProt P00915); test: stopped flow CO2 hydrase assay; assay type: biochemical; conditions: mean from 3 assays
T3 construct: made in house
Summary of the method: as §1

A498 = test: NCI SRB assay; assay type: cell-based, human; conditions: for GI%: A498, 10 μM; for Growth Percent: A498, 1.00E-5 Molar

T2 sequence (O43570 25-354): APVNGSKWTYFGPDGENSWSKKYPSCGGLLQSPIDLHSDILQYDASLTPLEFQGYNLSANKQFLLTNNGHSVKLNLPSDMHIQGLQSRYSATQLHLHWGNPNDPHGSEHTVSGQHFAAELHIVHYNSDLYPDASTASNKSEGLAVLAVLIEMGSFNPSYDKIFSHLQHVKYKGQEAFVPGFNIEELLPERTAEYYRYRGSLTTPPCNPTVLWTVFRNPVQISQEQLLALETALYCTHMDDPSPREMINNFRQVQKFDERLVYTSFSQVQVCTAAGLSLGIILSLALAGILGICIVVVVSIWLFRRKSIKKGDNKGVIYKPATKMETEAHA
T3 sequence (P00915 whole entry): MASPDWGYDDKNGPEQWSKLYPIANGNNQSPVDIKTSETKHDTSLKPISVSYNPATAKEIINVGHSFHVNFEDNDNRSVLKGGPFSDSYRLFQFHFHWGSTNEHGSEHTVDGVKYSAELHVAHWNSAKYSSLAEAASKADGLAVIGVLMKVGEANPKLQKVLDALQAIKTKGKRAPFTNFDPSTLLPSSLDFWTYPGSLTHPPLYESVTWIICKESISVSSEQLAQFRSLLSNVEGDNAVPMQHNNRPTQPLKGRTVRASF

## Cc1cccc(-c2nc(Nc3ccc(C(=O)O)cc3)c3ccccc3n2)c1 [8a, 4-((2-(m-Tolyl)quinazolin-4-yl)amino)benzoic acid]
RPMI-8226
  GI%: 30%
  Growth Percent: 70.27%
MDA-MB-435
  GI%: – (Only GI% higher than 20% are shown)
  Growth Percent: 96.58%
OVCAR-4
  GI%: – (Only GI% higher than 20% are shown)
  Growth Percent: 83.42%
BT-549
  GI%: 34%
  Growth Percent: 66.04%
MCF7
  GI%: – (Only GI% higher than 20% are shown)
  Growth Percent: 88.63%
IGROV1
  GI%: – (Only GI% higher than 20% are shown)
  Growth Percent: 110.06%
SF-268
  GI%: 37%
  Growth Percent: 62.51%
NCI-H23
  Growth Percent: 99.04%
NCI-H522
  GI%: – (Only GI% higher than 20% are shown)
  Growth Percent: 87.55%
HCT-15
  GI%: 29%
  Growth Percent: 70.54%
HOP-62
  GI%: – (Only GI% higher than 20% are shown)
  Growth Percent: 95.14%
HT29
  GI%: – (Only GI% higher than 20% are shown)
  Growth Percent: 91.72%
U251
  GI%: 27%
  Growth Percent: 72.61%
SK-MEL-28
  GI%: – (Only GI% higher than 20% are shown)
  Growth Percent: 96.84%
MALME-3M
  GI%: – (Only GI% higher than 20% are shown)
  Growth Percent: 110.61%
A549/ATCC
  GI%: 22%
  Growth Percent: 78.30%
HCC-2998
  GI%: 24%
  Growth Percent: 75.96%
M14
  GI%: – (Only GI% higher than 20% are shown)
  Growth Percent: 88.98%
T-47D
  GI%: 22%
  Growth Percent: 77.59%
SK-MEL-5
  GI%: 29%
  Growth Percent: 71.03%
786-0
  GI%: 29%
  Growth Percent: 70.77%
OVCAR-8
  GI%: – (Only GI% higher than 20% are shown)
  Growth Percent: 82.44%
K-562
  GI%: – (Only GI% higher than 20% are shown)
  Growth Percent: 80.44%
hCA IX; KI hCA I / KI hCA IX
  Selectivity ratio I/IX: 20.4
hCA IX
  Selectivity ratio II/IX: 2.16
  Ki: 4.3 µM
hCA XII
  Selectivity ratio I/XII: 23.1
  Selectivity ratio II/XII: 2.45
  Ki: 3.8 µM
hCA I
  Ki: 87.7 µM
A498
  GI%: 54%
  Growth Percent: 45.68%

## COc1ccc(-c2nc(Nc3ccccc3C(=O)O)c3ccccc3n2)cc1 [6c, 2-((2–(4-Methoxyphenyl)quinazolin-4-yl)amino)benzoic acid]
RPMI-8226
  GI%: 80%
  Growth Percent: 20.19%
MDA-MB-435
  GI%: 44%
  Growth Percent: 56.03%
OVCAR-4
  GI%: 66%
  Growth Percent: 34.25%
BT-549
  GI%: 62%
  Growth Percent: 37.53%
MCF7
  GI%: 49%
  Growth Percent: 51.24%
IGROV1
  GI%: 21%
  Growth Percent: 78.77%
SF-268
  GI%: 43%
  Growth Percent: 56.93%
NCI-H23; NCI-H23, 10 μM
  GI%: 38%
NCI-H23
  Growth Percent: 62.10%
NCI-H522
  GI%: 63%
  Growth Percent: 37.29%
HCT-15
  GI%: 61%
  Growth Percent: 39.33%
HOP-62
  GI%: 49%
  Growth Percent: 51.05%
HT29
  GI%: 37%
  Growth Percent: 63.13%
U251
  GI%: 66%
  Growth Percent: 34.16%
SK-MEL-28
  GI%: 35%
  Growth Percent: 65.22%
MALME-3M
  GI%: 31%
  Growth Percent: 68.60%
A549/ATCC
  GI%: 60%
  Growth Percent: 39.61%
HCC-2998
  GI%: 38%
  Growth Percent: 62.09%
M14
  GI%: 48%
  Growth Percent: 52.09%
T-47D
  GI%: 71%
  Growth Percent: 29.31%
SK-MEL-5
  GI%: 70%
  Growth Percent: 30.49%
786-0
  GI%: 48%
  Growth Percent: 51.90%
OVCAR-8
  GI%: 40%
  Growth Percent: 60.14%
K-562
  GI%: 69%
  Growth Percent: 31.34%
hCA IX
  Selectivity ratio II/IX: 1.79
  Ki: 46.4 µM
hCA XII
  Selectivity ratio I/XII: 11.2
  Selectivity ratio II/XII: 9.34
  Ki: 8.9 µM
hCA I
  Ki: > 100 µM
A498
  GI%: 41%
  Growth Percent: 58.92%
